Patent US11247970B2, “Selective inhibition of gluconeogenic activity” (Dana-Farber Cancer Institute, Inc., priority 2017, dated 2022)

What was measured:
[1] = Preliminary pharmacokinetics, liver concentration; assay type: in vivo; details: ip, 2 h after single dose 30 mg/kg I.P., read-out: compound concentration in the liver
primary hepatocytes = assay: Glucose production by primary hepatocytes (glucagon or Ad-PGC-1α); assay type: cell-based, mouse; details: for glucose release to culture medium compared to control: hepatocytes ectopically expressing PGC-1α, overnight treatment, pyruvate/lactate
Procedure: (§1) For measurement of acetylation, gene expression and glucose production SR-18292 ([…]) was added to cells overnight and fresh compound was added the following day for additional 3 h before collecting the cells (for total of ˜18 h treatment). Where insulin and glucagon stimulation were performed, the medium was changed to starvation medium (DMEM, 0.2% BSA, 2 mM sodium pyruvate, and 1% penicillin/streptomycin) with fresh compound for the last 3 h and cells were stimulated with either 100 nM insulin or 200 nM glucagon for an extra 1.5 h. For glucose measurements following PGC-1α over expression cells were incubated for the last 3 h in glucose-free medium (phenol-red/glucose free DMEM, 0.2% BSA, 2 mM sodium pyruvate and 20 mM sodium lactate or 10 mM glycerol in case glycerol was used as substrate). For glucose measurements following glucagon stimulation cells were incubated for the last 4 h in the same glucose-free medium that also contained glucagon (200 nM). The glucose level in the medium was measured using a glucose assay kit from Eton Bioscience Inc. by adding […] of assay buffer to […] of medium followed by 15 min incubation at 37° C. Absorbance was measured at 490 nm.
PGC-1α activates hepatic gluconeogenic gene expression, and an increase in its acetylation status reduces expression of both Pck1 and G6pc genes (Rodgers et al., 2005; Yoon et al., 2001). […] Thus, a high-throughput screen with these 252 compounds at different doses was performed. Briefly, Hepatocytes were treated with forskolin for 1.5 hours to induce the expression of both Pck1 and G6pc genes, which mimics the fasting and PGC-1α-mediated gluconeogenic response. The dose response curves were used to calculate an inhibitory activity of the compounds by determining the difference in Ct values between compound treatment and forskolin control at each dose, and provided an estimated potency of the compounds in suppressing Pck1 and G6pc (FIGS. 4, 34). […] To specifically test the inhibitory activity of the remaining small molecule positive hits on PGC-1α-mediated glucose production, adenoviruses to ectopically express PGC-1α in primary hepatocytes were used. Similar to forskolin, PGC-1α overexpression induces gluconeogenic gene expression and promotes glucose release. Primary hepatocytes were treated with the chosen positive hit compounds that could suppress gluconeogenic gene expression, and the concentration of glucose released to the culture medium was measured.

PGC-1α [2] = target: T1, PGC-1α (Mus musculus, UniProt O70343); assay: AlphaLisa PGC-1α acetylation screen in U-2 OS cells over expressing PGC-1α and GCN5; assay type: cell-based; set-up: expressed in transfected cells; host or cells: U-2 OS cells infected with Ad-PGC-1α and Ad-GCN5
T1 sequence (O70343 1-797): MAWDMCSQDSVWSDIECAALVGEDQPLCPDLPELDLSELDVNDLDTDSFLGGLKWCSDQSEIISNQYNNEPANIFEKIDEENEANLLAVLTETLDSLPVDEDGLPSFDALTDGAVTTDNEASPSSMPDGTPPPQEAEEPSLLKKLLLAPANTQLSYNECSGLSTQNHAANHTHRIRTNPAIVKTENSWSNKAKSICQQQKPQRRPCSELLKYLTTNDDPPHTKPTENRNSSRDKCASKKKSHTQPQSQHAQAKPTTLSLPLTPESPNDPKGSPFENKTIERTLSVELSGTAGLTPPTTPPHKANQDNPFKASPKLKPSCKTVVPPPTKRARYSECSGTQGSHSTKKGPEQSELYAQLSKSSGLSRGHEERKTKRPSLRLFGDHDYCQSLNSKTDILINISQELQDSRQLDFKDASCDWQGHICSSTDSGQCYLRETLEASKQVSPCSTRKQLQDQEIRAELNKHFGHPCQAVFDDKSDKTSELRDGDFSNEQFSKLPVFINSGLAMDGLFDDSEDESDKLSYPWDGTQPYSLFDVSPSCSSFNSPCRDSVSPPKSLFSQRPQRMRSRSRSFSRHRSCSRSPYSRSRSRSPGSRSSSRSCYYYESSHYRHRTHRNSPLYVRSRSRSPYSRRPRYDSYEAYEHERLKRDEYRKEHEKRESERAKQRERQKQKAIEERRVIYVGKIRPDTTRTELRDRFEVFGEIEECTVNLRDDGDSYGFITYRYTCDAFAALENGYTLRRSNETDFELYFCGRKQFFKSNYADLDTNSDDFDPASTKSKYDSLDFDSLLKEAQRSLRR
Procedure: U-2 OS cells were thawed and grown in 4 Triple flasks (NUNC) with growth medium. After 48 hours, cells were harvested and seeded in 4 Hyper flasks at a density of 15-20 million cell each. Cells were then grown for 4-5 days until reached confluency. After reaching the desired confluency, medium was changed to assay medium and cells were infected with Ad-PGC-1α and Ad-GCN5 for 4 hours. Following infection, medium was changed to phenol-free medium and cells were incubated overnight. The following day, cells were harvested and seeded on a 384-well plate at 7000 cells/well in […] assay media. Cells were allowed to adhere for 4-8 hours after which 100 nl of compound was added. After overnight incubation with compound, media was aspirated and cells were incubated with lysis buffer for 1 hour at RT. […] Perkin Elmer EnVision plate reader was used for signal detection using Alpha protocol. For each compound, activity score was calculated based on the mean of the normalized and corrected sample activity replicates. […] For each sample the highest valid tested concentration was determined and set as Maximum concentration. […] AC values were calculated using the curve fitting strategies in Genedata Screener Condoseo (7.0.3) and up to the active concentration limit (Maximum concentration) described for each sample. […]

[3] = Bioavailability (data not shown)
[4] = Solubility (data not shown); assay type: physicochemical
PGC-1α [5] = target: T1, PGC-1α; assay: Western blot of PGC-1α acetylation in U-2 OS cells (analog comparison); assay type: cell-based; set-up: expressed in transfected cells; host or cells: U-2 OS cells infected with Ad-PGC-1α and Ad-GCN5; dose or concentration left out as unconfirmed; details: Ad-PGC-1α and Ad-GCN5, 18 h
Procedure: U-2 OS cells were infected with Ad-PGC-1α and Ad-GCN5 and treated with the indicated compound for 18 h. PGC-1α was immunoprecipitated using FLAG beads.
For PGC-1α acetylation detection in hepatocytes cells were infected with Ad-PGC-1α and Ad-GCN5. Cells were collected in RIPA buffer (containing protease inhibitor cocktail, 5 mM NaF, 5 mM β-glycerophosphate, 10 mM nicotinamide, 1 mM DTT and 1 μM trichostatin A). FLAG-HA-PGC-1α was immunoprecipitated overnight at 4° C. with FLAG beads (Sigma A2220). For GCN5 interaction with PGC-1α, U-2 OS cells were infected with Ad-PGC-1α. Nuclear extracts were obtained by lysing cell in Buffer A (10 mM HEPES-KOH (pH 7.9), 10 mM KCl, 1.5 mM MgCl2, 0.5 mM DTT, 0.25% IGEPAL (v/v), 5 mM NaF, 5 mM β-glycerophosphate, 5 mM sodium butyrate and 10 mM nicotinamide), supplemented with Protease Inhibitor Cocktail. Once cytoplasmic fractions were separated, nuclear pellets were lysed in Buffer B (20 mM HEPES-KOH (pH 7.9), 125 mM NaCl, 1 mM EDTA, 1 mM DTT, 1% IGEPAL (v/v), 10% glycerol (v/v), 5 mM NaF, 5 mM β-glycerophosphate, 5 mM sodium butyrate and 10 mM nicotinamide), supplemented with Protease Inhibitor Cocktail. FLAG-HA-PGC-1α was immunoprecipitated with FLAG beads overnight at 4° C. All beads were washed at last 3 times in lysis buffer before eluting in sample loading buffer.

[6] = tested on: Pck1 and G6pc gene expression; assay: Gluconeogenic gene and protein expression in primary hepatocytes (qPCR, western); assay type: cell-based, mouse; set-up: effect on glucagon or PGC-1α-increased Pck1 and G6pc expression, relative to SR-18292: dose or concentration left out as unconfirmed; details: 18 h, glucagon or Ad-PGC-1α
Procedure: as §1
siRNA oligos against mouse Ppargc1a were purchased from OriGene (SR420231). Hepatocytes were transfected with a 1:1:1:mixture of 3 unique 27mer siRNA duplexes ([…]) using Lipofectamin RNAiMax (Invitrogen) immediately upon seeding with plating medium. The following morning cells were washed with PBS and medium was changed to maintenance medium. In the afternoon, cells were transfected again and compound treatment started.
Total RNA was extracted from cells or pulverized liver using TRIzol reagent (Ambion, Life Technologies), followed by cDNA preparation from 2 μg of total RNA with a High-Capacity cDNA Reverse Transcription Kit (Applied Biosystems). cDNA products were quantified by real-time PCR using Power SYBR Green PCR Master Mix (Applied Biosystems) on a CFX384 Real-Time PCR System (Bio-Rad). To calculate IC50 from C-80 dose response, curves were fit to the hill equation in a similar manner used to calculate estimated AC50 from the high-throughput qPCR screen. However, unlike the curves from the qPCR high-throughput screen, values of relative repression were used rather than of delta-Ct.

Cc1ccc(CN(CC(O)COc2cccc3[nH]cc(C)c23)C(C)(C)C)cc1 (stereo not drawn) [Compound C-80]
concentration at 2 h [1]: 2300 nM | glucose release to culture medium compared to control (primary hepatocytes): next most potent small molecule | potency in a confirmatory screen (PGC-1α [2]): highest potency

Cc1nc(N2CCN(S(=O)(=O)c3ccc(F)cc3)CC2)c2c(-c3cccs3)csc2n1 [Compound C-82]
glucose release to culture medium compared to control (primary hepatocytes): top small molecule hit suppressing glucose production | bioavailability [3]: poor | solubility [4]: poor

Cc1ccc(CN(CC(O)COc2ccccc2)C(C)(C)C)cc1 (stereo not drawn) [SR-19138]
ability to induce acetylation of PGC-1α compared to SR-18292 (PGC-1α [5]): reduced ability to induce acetylation of PGC-1α | effect on glucagon or PGC-1α-increased Pck1 and G6pc expression, relative to SR-18292 [6]: reduced the inhibitory effect

CN(C)C(=N)N=C(N)N [metformin, reference compound]
concentration able to suppress glucose production (primary hepatocytes; hepatocytes): 100 to 250 µM
